Measured values published in patent US8394952B2 (Vertex Pharmaceuticals Incorporated, priority 2006, dated 2013).

biological target: Plk1 (Homo sapiens, UniProt P53350); experiment: biochemical
Sequence (P53350 20-338): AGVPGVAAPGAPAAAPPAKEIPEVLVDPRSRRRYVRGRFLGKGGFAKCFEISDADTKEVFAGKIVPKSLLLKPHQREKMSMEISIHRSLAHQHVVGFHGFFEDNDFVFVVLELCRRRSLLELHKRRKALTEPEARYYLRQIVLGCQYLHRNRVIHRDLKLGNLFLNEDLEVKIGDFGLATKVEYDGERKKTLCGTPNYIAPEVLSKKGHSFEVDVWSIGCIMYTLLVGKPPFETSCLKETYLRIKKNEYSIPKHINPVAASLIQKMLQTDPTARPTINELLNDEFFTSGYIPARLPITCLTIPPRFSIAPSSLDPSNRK

| SMILES | Ki |
| --- | --- |
| COc1cc(C(=O)N[C@@H]2C[C@H]2c2ccccc2)ccc1Nc1ncc2c(n1)N(C1CCCC1)CC(C)(C)C(=O)N2C [Compound I-225, 4-(9-cyclopentyl-5,7,7-trimethyl-6-oxo-6,7,8,9-tetrahydro-5H-pyrimido[4,5-b][1,4]diazepin-2-ylamino)-3-methoxy-N-((1R,2S)-2-phenylcyclopropyl)benzamide] | < 10 nM |
| COCC(=O)Nc1ccc(Nc2ncc3c(n2)N(C2CCCC2)CC(C)(C)C(=O)N3C)c(OC)c1 [Compound I-104, N-(4-(9-cyclopentyl-5,7,7-trimethyl-6-oxo-6,7,8,9-tetrahydro-5H-pyrimido[4,5-b][1,4]diazepin-2-ylamino)-3-methoxyphenyl)-2-methoxyacetamide] | < 10 nM |
| COc1cc(C(=O)NC(C)C)ccc1Nc1ncc2c(n1)N(C1CCCC1)CC(C)(C)C(=O)N2C [Compound I-238, 4-(9-cyclopentyl-5,7,7-trimethyl-6-oxo-6,7,8,9-tetrahydro-5H-pyrimido[4,5-b][1,4]diazepin-2-ylamino)-N-isopropyl-3-methoxybenzamide] | < 10 nM |
| CN1C(=O)C(C)(C)CN(C2CCCC2)c2nc(Nc3ccc4[nH][nH]c(=O)c4c3)ncc21 [Compound I-109, 2-(2,3-dihydro-3-oxo-1H-indazol-5-ylamino)-9-cyclopentyl-8,9-dihydro-5,7,7-trimethyl-5H-pyrimido[4,5-b][1,4]diazepin-6(7H)-one] | 10 to 100 nM |
| CN1C(=O)C(C)(C)CN(C2CCCC2)c2nc(Nc3cccc(C(=O)NC4CCOCC4)c3)ncc21 [Compound I-141, 3-(9-Cyclopentyl-6,7,8,9-tetrahydro-5,7,7-trimethyl-6-oxo-5H-pyrimido[4,5-b][1,4]diazepin-2-ylamino)-N-(tetrahydro-2H-pyran-4-yl)benzamide] | 10 to 100 nM |
| COc1cc(C(=O)NCCN2CCOCC2)ccc1Nc1ncc2c(n1)N(C1CCCC1)CC(C)(C)C(=O)N2C [Compound I-33, 4-(9-cyclopentyl-6,7,8,9-tetrahydro-5,7,7-trimethyl-6-oxo-5H-pyrimido[4,5-b][1,4]diazepin-2-ylamino)-3-methoxy-N-(2-morpholinoethyl)benzamide] | < 10 nM |
| COc1cc(C(=O)N2CCOCC2)ccc1Nc1ncc2c(n1)N(C1CCCC1)CC(C)(C)C(=O)N2C [Compound I-199, 9-cyclopentyl-2-(2-methoxy-4-(morpholine-4-carbonyl)phenylamino)-5,7,7-trimethyl-8,9-dihydro-5H-pyrimido[4,5-b][1,4]diazepin-6(7H)-one] | < 10 nM |
| CNC(=O)c1ccc(Nc2ncc3c(n2)N(C2CCCC2)CCc2nncn2-3)c(OC)c1 [Compound I-42, 4-(6-Cyclopentyl-5,6-dihydro-4H-2,3,6,7,9,10b-hexaaza-benzo[e]azulen-8-ylamino)-3-methoxy-N-methylbenzamide] | 10 to 100 nM |
| COc1cc(C(=O)NC2CCOCC2)ccc1Nc1ncc2c(n1)N(C1CC(F)(F)C1)CC(C)(C)C(=O)N2C [Compound I-171, 4-(9-(3,3-difluorocyclobutyl)-6,7,8,9-tetrahydro-5,7,7-trimethyl-6-oxo-5H-pyrimido[4,5-b][1,4]diazepin-2-ylamino)-N-(tetrahydro-2H-pyran-4-yl)-3-methoxybenzamide] | < 10 nM |
| COc1ccc(CNC(=O)c2ccc(Nc3ncc4c(n3)N(C3CCCC3)CC(C)(C)C(=O)N4C)c(OC)c2)cc1 [Compound I-213, 4-(9-cyclopentyl-5,7,7-trimethyl-6-oxo-6,7,8,9-tetrahydro-5H-pyrimido[4,5-b][1,4]diazepin-2-ylamino)-3-methoxy-N-(4-methoxybenzyl)benzamide] | < 10 nM |
| COc1cc(C(=O)N[C@H]2CCN(CC3CC3)C2)ccc1Nc1ncc2c(n1)N(C1CCCC1)CC(C)(C)C(=O)N2C [Compound I-75, 4-(9-cyclopentyl-6,7,8,9-tetrahydro-5,7,7-trimethyl-6-oxo-5H-pyrimido[4,5-b][1,4]diazepin-2-ylamino)-N—((S)-1-(cyclopropylmethyl)pyrrolidin-3-yl)-3-methoxybenzamide] | < 10 nM |
| CNC(=O)c1ccc(Nc2ncc3c(n2)N(C2CCOCC2)CC(C)(C)C(=O)N3C)c(OC)c1 [Compound I-56, 4-(6,7,8,9-tetrahydro-9-(tetrahydro-2H-pyran-4-yl)-5,7,7-trimethyl-6-oxo-5H-pyrimido[4,5-b][1,4]diazepin-2-ylamino)-3-methoxy-N-methylbenzamide] | 10 to 100 nM |
| COc1cc(C(=O)NCc2ccc(S(C)(=O)=O)cc2)ccc1Nc1ncc2c(n1)N(C1CCCC1)CC(C)(C)C(=O)N2C [Compound I-214, 4-(9-cyclopentyl-5,7,7-trimethyl-6-oxo-6,7,8,9-tetrahydro-5H-pyrimido[4,5-b][1,4]diazepin-2-ylamino)-3-methoxy-N-(4-(methylsulfonyl)benzyl)benzamide] | < 10 nM |
| COc1cc(C(=O)NCC2CC2)ccc1Nc1ncc2c(n1)N(C1CCCC1)CC(C)(C)C(=O)N2C [Compound I-131, 4-(9-cyclopentyl-6,7,8,9-tetrahydro-5,7,7-trimethyl-6-oxo-5H-pyrimido[4,5-b][1,4]diazepin-2-ylamino)-N-(cyclopropylmethyl)-3-methoxybenzamide] | < 10 nM |
| COc1cc(C(=O)NCC2CCCCC2)ccc1Nc1ncc2c(n1)N(C1CCCC1)CC(C)(C)C(=O)N2C [Compound I-196, N-(cyclohexylmethyl)-4-(9-cyclopentyl-5,7,7-trimethyl-6-oxo-6,7,8,9-tetrahydro-5H-pyrimido[4,5-b][1,4]diazepin-2-ylamino)-3-methoxybenzamide] | < 10 nM |
| COc1cc(C(=O)N[C@@H]2CCCC[C@H]2O)ccc1Nc1ncc2c(n1)N(C1CCCC1)CC(C)(C)C(=O)N2C [Compound I-268, 4-(9-cyclopentyl-5,7,7-trimethyl-6-oxo-6,7,8,9-tetrahydro-5H-pyrimido[4,5-b][1,4]diazepin-2-ylamino)-N-((1R,2R)-2-hydroxycyclohexyl)-3-methoxybenzamide] | < 10 nM |
| COc1cc(C(=O)NC2CC2)ccc1Nc1ncc2c(n1)N(C1CCCC1)C[C@H](C)C(=O)N2C [Compound I-175, 4-((S)-9-cyclopentyl-6,7,8,9-tetrahydro-5,7-dimethyl-6-oxo-5H-pyrimido[4,5-b][1,4]diazepin-2-ylamino)-N-cyclopropyl-3-methoxybenzamide] | < 10 nM |
| CN1C(=O)C(C)(C)CN(C2CCCC2)c2nc(Nc3cccc(NC(=O)c4ccccc4)c3)ncc21 [Compound I-154, N-(3-(9-cyclopentyl-6,7,8,9-tetrahydro-5,7,7-trimethyl-6-oxo-5H-pyrimido[4,5-b][1,4]diazepin-2-ylamino)phenyl)benzamide] | 10 to 100 nM |
| COc1ccccc1Nc1ncc2c(n1)N(C1CCCC1)CC(C)(C)C(=O)N2C [Compound I-102, 2-(2-methoxyphenylamino)-9-cyclopentyl-8,9-dihydro-5,7,7-trimethyl-5H-pyrimido[4,5-b][1,4]diazepin-6(7H)-one] | 10 to 100 nM |
| CNC(=O)c1ccc(Nc2ncc3c(n2)N(c2ccccc2)CC(C)(C)C(=O)N3C)c(OC)c1 [Compound I-40, 4-(6,7,8,9-tetrahydro-5,7,7-trimethyl-6-oxo-9-phenyl-5H-pyrimido[4,5-b][1,4]diazepin-2-ylamino)-3-methoxy-N-methylbenzamide] | 10 to 100 nM |
| CN1C(=O)C(C)(C)CN(C2CCCC2)c2nc(Nc3cccc(C(=O)NC4CN(C(=O)OC(C)(C)C)C4)c3)ncc21 [Compound I-143, 3-[3-(9-Cyclopentyl-5,7,7-trimethyl-6-oxo-6,7,8,9-tetrahydro-5H-pyrimido[4,5-b][1,4]diazepin-2-ylamino)-benzoylamino]-azetidine-1-carboxylic acid tert-butyl ester] | 10 to 100 nM |
| COc1cc(C(=O)NCCc2cn(C)cn2)ccc1Nc1ncc2c(n1)N(C1CCCC1)CC(C)(C)C(=O)N2C [Compound I-31, 4-(9-cyclopentyl-6,7,8,9-tetrahydro-5,7,7-trimethyl-6-oxo-5H-pyrimido[4,5-b][1,4]diazepin-2-ylamino)-3-methoxy-N-(2-(1-methyl-1H-imidazo-4-yl)ethyl)benzamide] | < 10 nM |
| COc1cc(C(=O)N[C@@H]2CCC[C@H]2O)ccc1Nc1ncc2c(n1)N(C1CCCC1)CC1(CC1)C(=O)N2C [Compound I-272, 4-(9′-cyclopentyl-5′-methyl-6′-oxo-5′,6′,8′,9′-tetrahydrospiro[cyclopropane-1,7′-pyrimido[4,5-b][1,4]diazepine]-2′-ylamino)-N-((1R,2R)-2-hydroxycyclopentyl)-3-methoxybenzamide] | < 10 nM |
| COc1cc(C(=O)Nc2cc(C)[nH]n2)ccc1Nc1ncc2c(n1)N(C1CCCC1)CC(C)(C)C(=O)N2C [Compound I-231, 4-(9-cyclopentyl-5,7,7-trimethyl-6-oxo-6,7,8,9-tetrahydro-5H-pyrimido[4,5-b][1,4]diazepin-2-ylamino)-3-methoxy-N-(5-methyl-1H-pyrazol-3-yl)benzamide] | < 10 nM |
| COC(=O)Nc1ccc(Nc2ncc3c(n2)N(C2CCCC2)CC(C)(C)C(=O)N3C)c(OC)c1 [Compound I-103, Methyl 4-(9-cyclopentyl-5,7,7-trimethyl-6-oxo-6,7,8,9-tetrahydro-5H-pyrimido[4,5-b][1,4]diazepin-2-ylamino)-3-methoxyphenylcarbamate] | < 10 nM |
| COc1cc(C(=O)NC2CCN(C)CC2)ccc1Nc1ncc2c(n1)N(C1CCCC1)CC(C)C(=O)N2C (stereo not shown) [Compound I-12, 4-(9-cyclopentyl-6,7,8,9-tetrahydro-5,7-dimethyl-6-oxo-5H-pyrimido[4,5-b][1,4]diazepin-2-ylamino)-3-methoxy-N-(1-methylpiperidin-4-yl)benzamide] | < 10 nM |
| COc1cc(C(=O)NCC2CCC2)ccc1Nc1ncc2c(n1)N(C1CCCC1)CC(C)(C)C(=O)N2C [Compound I-246, N-(cyclobutylmethyl)-4-(9-cyclopentyl-5,7,7-trimethyl-6-oxo-6,7,8,9-tetrahydro-5H-pyrimido[4,5-b][1,4]diazepin-2-ylamino)-3-methoxybenzamide] | < 10 nM |
| COc1cc(C(=O)NC2CC(F)(F)C2)ccc1Nc1ncc2c(n1)N(C1CCCC1)CC1(CC1)C(=O)N2C [Compound I-269, 4-(9′-cyclopentyl-5′-methyl-6′-oxo-5′,6′,8′,9′-tetrahydrospiro[cyclopropane-1,7′-pyrimido[4,5-b][1,4]diazepine]-2′-ylamino)-N-(3,3-difluorocyclobutyl)-3-methoxybenzamide] | < 10 nM |
